Data taken from patent US5618812A, “Benzodiazepine derivatives” (Merck Sharp & Dohme, Ltd., priority 1992, dated 1997).
Structures can show the parent of a compound that is named as a salt. Where two headings read alike, the source gives them in different places.

What was measured:
[1] = target: T1, CCK-B (Cavia porcellus, UniProt H0VZC5); experiment: displacement of specific 125I-CCK from guinea pig brain (CCK-B receptor binding)
T1 construct: guinea pig brain (CCK-B); from tissue; host or cells: guinea pig brain
T1 sequence (H0VZC5 1-426): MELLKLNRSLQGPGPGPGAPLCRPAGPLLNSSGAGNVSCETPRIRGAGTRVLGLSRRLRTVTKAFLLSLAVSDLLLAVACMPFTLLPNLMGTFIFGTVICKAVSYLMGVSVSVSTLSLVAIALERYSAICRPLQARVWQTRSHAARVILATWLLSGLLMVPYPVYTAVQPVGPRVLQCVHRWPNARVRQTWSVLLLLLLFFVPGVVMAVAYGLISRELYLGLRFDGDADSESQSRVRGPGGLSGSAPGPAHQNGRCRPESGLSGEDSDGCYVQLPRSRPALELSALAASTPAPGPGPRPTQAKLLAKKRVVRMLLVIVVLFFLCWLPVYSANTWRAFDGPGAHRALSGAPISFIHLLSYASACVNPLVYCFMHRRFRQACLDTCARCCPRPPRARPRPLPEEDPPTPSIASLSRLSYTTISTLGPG
Procedure: (§1) The CCK-A and CCK-B antagonising activity of the compounds described herein was evaluated using the assays described in published European patent application no. 0514133. The method essentially involves determining the concentration of the test compound required to displace 50% of the specific ^125 I-CCK from rat pancreas (CCK-A) or guinea pig brain (CCK-B). The data in Table 1 were obtained for compounds of the Examples.

[2] = target: T2, CCK-A (Rattus norvegicus, UniProt P30551); experiment: biochemical; format: binding; conditions: rat pancreas (CCK-A), 125I-CCK
T2 sequence (P30551 1-444): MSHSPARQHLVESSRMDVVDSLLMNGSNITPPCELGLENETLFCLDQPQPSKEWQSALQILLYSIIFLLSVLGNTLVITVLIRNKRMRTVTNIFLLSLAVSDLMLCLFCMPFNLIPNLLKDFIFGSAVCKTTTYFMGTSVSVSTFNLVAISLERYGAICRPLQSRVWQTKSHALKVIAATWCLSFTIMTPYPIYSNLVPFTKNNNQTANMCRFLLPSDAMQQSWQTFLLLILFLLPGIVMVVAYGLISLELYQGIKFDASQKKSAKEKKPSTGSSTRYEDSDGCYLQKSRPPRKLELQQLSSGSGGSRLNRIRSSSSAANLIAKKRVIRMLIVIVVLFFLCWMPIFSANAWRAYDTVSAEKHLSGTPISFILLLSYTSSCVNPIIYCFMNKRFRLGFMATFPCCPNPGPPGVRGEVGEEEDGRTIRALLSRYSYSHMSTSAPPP
Procedure: as §1, with “(CCK-B).” for “(CCK-B). The data in Table 1 were obtained for compounds of the Examples.”

[3] = CCK RECEPTOR BINDING RESULTS IC50 125I-CCK Brain
[4] = read-out: CCK RECEPTOR BINDING RESULTS IC50 125I-CCK Pancreas
[5] = read-out: CCK RECEPTOR BINDING RESULTS IC50 125I-CCK Brain
[6] = CCK RECEPTOR BINDING RESULTS IC50 125I-CCK Pancreas

| Structure (SMILES) | IC50 [1, 3] [nM] | IC50 [2, 4] [nM] | IC50 [1, 5] [nM] | IC50 [2, 6] [nM] |
| --- | --- | --- | --- | --- |
| CN1C(=O)C(NC(=O)Nc2cccc(I)c2)N=C(N2CC3CCC(CC3)C2)c2ccccc21 (single isomer, unassigned; (-)) [Example 48, (-)-N-[5-(3-Azabicyclo[3,2,2]nonan-3-yl)-2,3-dihydro-1-methyl-2-oxo-1H-1,4-benzodiazepin-3-yl]-N'-[3-iodophenyl]urea] | 1.11 | 2420 | – | – |
| Cc1cc(NC(=O)NC2N=C(N3CC4CCC(CC4)C3)c3ccccc3N(C)C2=O)ccc1F (racemic) [Example 52, N-[3(R,S)-5-(3-Azabicyclo[3,2,2]nonan-3-yl)-2,3-dihydro-1-methyl-2-oxo-1H-1,4-benzodiazepin-3-yl)-N'-[4-fluoro-3-methylphenyl]urea] | 0.25 | 18.5 | – | – |
| Cc1cccc(NC(=O)NC2N=C(N3CC4CCC(C4)C3)c3ccccc3N(C)C2=O)c1 (racemic) [Example 38, N-[3(R,S)-5-(3-Azabicyclo[3,2,1]octan-3-yl)-2,3-dihydro-1-methyl-2-oxo-1H-1,4-benzodiazepin-3-yl]-N'-[3-methylphenyl]urea] | – | 7.93 | 0.71 | – |
| CN1C(=O)C(NC(=O)Nc2cccc(I)c2)N=C(N2CC3CCC(CC3)C2)c2ccccc21 (single isomer, unassigned; (+)) [Example 49, (+)-N-[5-(3-Azabicyclo[3,2,2]nonan-3-yl)-2,3-dihydro-1-methyl-2-oxo-1H-1,4-benzodiazepin-3-yl]-N'-[3-iodophenyl]urea] | 82.7 | 9.65 | – | – |
| CCCN1C(=O)C(NC(=O)Nc2cccc(C)c2)N=C(N2CCC(C)CC2)c2ccccc21 (racemic) [Example 17, N-[3(R,S)-2,3-Dihydro-5-(4-methylpiperidin-1-yl)-2-oxo-1-propyl-1H-1,4-benzodiazepin-3-yl]N'-[3-methylphenyl]urea] | – | 27.2 | 0.2 | – |
| CN1C(=O)C(NC(=O)Nc2ccccc2)N=C(N2CC3CCC(CC3)C2)c2ccccc21 (racemic) [Example 50, N-[3(R,S)-5-(3-Azabicyclo[3,2,2]nonan-3-yl)-2,3-dihydro-1-methyl-2-oxo-1H-1,4-benzodiazepin-3-yl]-N'-[phenyl]urea] | 3.9 | 10 | – | – |
| CN1C(=O)C(NC(=O)Nc2ccc3c(c2)CCC3)N=C(N2CC3CCC(CC3)C2)c2ccccc21 (single isomer, unassigned; (-)) [Example 41, (-)-N-[5-(3-Azabicyclo[3,2,2]nonan-3-yl)-2,3-dihydro-1-methyl-2-oxo-1H-1,4-benzodiazepin-3-yl]-N'-[5-indanyl]urea] | 0.37 | > 3000 | – | – |
| CN1C(=O)C(NC(=O)Nc2ccc3c(c2)CCC3)N=C(N(C)C2CCCCC2)c2ccccc21 (racemic) [Example 82, N-[3(R,S)-5-(N-Cyclohexyl-N-methylamino)-2,3-dihydro-1-methyl-2-oxo-1H-1,4-benzodiazepin-3-yl]-N'-[5-indanyl]urea] | – | 815 | 0.47 | – |
| Cc1cccc(NC(=O)NC2N=C(N(C)C3CCN(C)CC3)c3ccccc3N(C)C2=O)c1 (racemic) [Example 73, N-[3(R,S)-5-(N-(4-N-Methylpiperidinyl)-N-methylamino)-2,3-dihydro-1-methyl-2-oxo-1H-1,4-benzodiazepin-3-yl]-N'-[3-methylphenyl]urea] | – | > 3000 | 1410 | – |
| CCN(C1=NC(NC(=O)Nc2cccc(C)c2)C(=O)N(C)c2ccccc21)C1CCCC1 (racemic) [Example 76, N-[3(R,S)-5-(N-Cyclopentyl-N-ethylamino)-2,3-dihydro-1-methyl-2-oxo-1H-1,4-benzodiazepin-3-yl]-N'-[3-methylphenyl]urea] | – | 760 | 3.12 | – |
| CN1C(=O)C(NC(=O)Nc2ccc3c(c2)CCC3)N=C(N(C)C2CCCCCC2)c2ccccc21 (racemic) [Example 69, N-[3(R,S)-5-(N-Cycloheptyl-N-methylamino)-2,3-dihydro-1-methyl-2-oxo-1H-1,4-benzodiazepin-3-yl]-N'-[5-indanyl]urea] | – | 469 | 2.82 | – |
| Cc1cccc(NC(=O)NC2N=C(N3CCC(C)(C)CC3)c3ccccc3N(C)C2=O)c1 (racemic) [Example 9, N-[3(R,S)-2,3-Dihydro-5-(4,4-dimethylpiperidin-1-yl)-1-methyl-2-oxo-1H-1,4-benzodiazepin-3-yl]N'-[3-methylphenyl]urea] | – | 8.97 | 0.21 | – |
| Cc1cccc(NC(=O)NC2N=C(NCCN(C)C)c3ccccc3N(C)C2=O)c1 (racemic) [Example 84, N-[3(R,S)-2,3-Dihydro-5-(2-(N,N-dimethylamino)ethylamino)-1-methyl-2-oxo-1H-1,4-benzodiazepin-3-yl]-N'-[3-methylphenyl]urea dihydrochloride] | – | > 3000 | 1900 | – |
| CN1C(=O)C(NC(=O)Nc2cccc(F)c2)N=C(N2CC3CCC(CC3)C2)c2ccccc21 (single isomer, unassigned; (+)) [Example 37, (+)-N-[5-(3-Azabicyclo[3,2,2]nonan-3-yl)-2,3-dihydro-1-methyl-2-oxo-1H-1,4-benzodiazepin-3-yl]-N'-[3-fluorophenyl]urea Hydrochloride] | 144 | – | – | 9 |
| C[C@@H]1CCC[C@H](C)N1C1=NC(NC(=O)Nc2ccc3c(c2)CCC3)C(=O)N(C)c2ccccc21 (single isomer, unassigned) [15 (enantiomer A)] | – | 1900 | 3.47 | – |
| CCCN1C(=O)C(NC(=O)Nc2cccc(C)c2)N=C(N2C[C@@H]3C[C@H]2CN3C)c2ccccc21 (stereo partly drawn) [Example 32, N-[3(R,S)-2,3-Dihydro-5-((1S,4S)-5-methyl-2,5-diazabicyclo-[2,2,1]heptan-2-yl)-2-oxo-1-propyl-1H-1,4-benzodiazepin-3-yl]-N'-[3-methylphenyl]urea] | – | > 3000 | 22 | – |
| Cc1cccc(NC(=O)NC2N=C(N3CCC(C)(C)CC3)c3ccccc3N(C)C2=O)c1 (single isomer, unassigned) [10 (enantiomer B)] | – | 0.42 | 12.6 | – |
| CCCN1C(=O)C(NC(=O)Nc2cccc(C)c2)N=C(N2CCC(NCC(F)(F)F)CC2)c2ccccc21 (racemic) [Example 3, N-[3(R,S)-2,3-Dihydro-2-oxo-1-propyl-5-(4-[1,1,1-trifluoroethylamine]piperidin-1-yl)-1H-1,4-benzodiazepin-3-yl]N'-[3-methylphenyl]urea] | – | 544 | 11.6 | – |
| Cc1cc(NC(=O)NC2N=C(N3CC4CCC(CC4)C3)c3ccccc3N(C)C2=O)ccc1F (single isomer, unassigned; (+)) [Example 54, (+)-N-[5-(3-Azabicyclo[3,2,2]nonan-3-yl)-2,3-dihydro-1-methyl-2-oxo-1H-1,4-benzodiazepin-3-yl]-N'-[4-fluoro-3-methylphenyl]urea Hydrochloride] | 68 | – | – | 8.4 |
| Cc1cccc(NC(=O)NC2N=C(N(C)Cc3ccccc3)c3ccccc3N(C)C2=O)c1 (racemic) [Example 72, N-[3(R,S)-5-(N-Benzyl-N-methylamino)-2,3-dihydro-1-methyl-2-oxo-1H-1,4-benzodiazepin-3-yl]-N'-[3-methylphenyl]urea] | – | 176 | 10.3 | – |
| CN1C(=O)C(NC(=O)Nc2ccc3c(c2)CCC3)N=C(N2CCC(C)(C)CC2)c2ccccc21 (single isomer, unassigned) [5 (enantiomer A)] | – | 738 | 0.49 | – |
| Cc1cccc(NC(=O)NC2N=C(N3CC4CCC(CC4)C3)c3ccccc3N(C)C2=O)c1 (racemic) [Example 31, N-[3(R,S)-5-(3-Azabicyclo[3,2,2]nonan-3-yl)-2,3-dihydro-1-methyl-2-oxo-1H-1,4-benzodiazepin-3-yl]-N'-[3-methylphenyl]urea] | 0.53 | – | – | 20 |
| Cc1cc(NC(=O)NC2N=C(N3CC4CCC(CC4)C3)c3ccccc3N(C)C2=O)ccc1F (single isomer, unassigned; (-)) [Example 53, (-)-N-[5-(3-Azabicyclo[3,2,2]nonan-3-yl)-2,3-dihydro-1-methyl-2-oxo-1H-1,4-benzodiazepin-3-yl]-N'-[4-fluoro-3-methylphenyl]urea Hydrochloride] | 0.18 | – | – | 3760 |
